# From ChEMBL document CHEMBL4616720 (J Med Chem, 2020)
# Experiments:
# [1] = molecular target: T1, Peptide deformylase, mitochondrial (Homo sapiens, UniProt Q9HBH1); assay: Inhibition of human PDF expressed in Escherichia coli BL21 pLysS using formyl-Met-Ala-His-Ala peptide as substrate measured after 1 hr by fluorescamine-based fluorescence assay
# T1 sequence (Q9HBH1 whole entry): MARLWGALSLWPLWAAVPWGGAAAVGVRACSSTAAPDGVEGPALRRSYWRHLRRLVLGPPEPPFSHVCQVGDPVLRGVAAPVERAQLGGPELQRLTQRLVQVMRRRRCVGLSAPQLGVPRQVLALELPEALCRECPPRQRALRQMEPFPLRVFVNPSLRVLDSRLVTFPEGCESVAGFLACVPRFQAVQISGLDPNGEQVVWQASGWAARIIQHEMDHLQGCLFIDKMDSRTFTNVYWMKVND
# [2] = tested on: HCT-116; assay: Antiproliferative activity against human HCT116 cells assessed as reduction in cell growth measured after 48 hrs by CCK8 assay; format: functional, cell-based; conditions: HCT-116, 48 h
# [3] = tested on: A549; assay: Antiproliferative activity against human A549 cells assessed as reduction in cell growth measured after 48 hrs by CCK8 assay; format: functional, cell-based; conditions: A549, 48 h
# [4] = tested on: SJSA-1; assay: Antiproliferative activity against human SJSA1 cells assessed as reduction in cell growth measured after 48 hrs by CCK8 assay; format: functional, cell-based; conditions: SJSA-1, 48 h
# [5] = tested on: HL-60; assay: Antiproliferative activity against human HL60 cells assessed as reduction in cell growth measured after 48 hrs by CCK8 assay; format: functional, cell-based; conditions: HL-60, 48 h
# [6] = tested on: MCF7; assay: Antiproliferative activity against human MCF7 cells assessed as reduction in cell growth measured after 48 hrs by CCK8 assay; format: functional, cell-based; conditions: MCF7, 48 h
# [7] = tested on: MCF-10A; assay: Cytotoxicity against human MCF10A cells assessed as reduction in cell growth measured after 48 hrs by CCK8 assay; format: cell-based
# [8] = molecular target: T2, Histone deacetylase 1 (Homo sapiens, UniProt Q13547); assay: Inhibition of HDAC1 (unknown origin) using Boc-Lys(Ac)-pNA as substrate preincubated for 20 mins followed by substrate addition and further incubated for 90 mins by fluorescence assay
# [9] = molecular target: T2, Histone deacetylase 1; assay: Inhibition of HDAC1 (unknown origin) at 10 uM using Boc-Lys(Ac)-pNA as substrate preincubated for 20 mins followed by substrate addition and further incubated for 90 mins by fluorescence assay relative to control
# [10] = molecular target: T3, Protein deacetylase HDAC6 (Homo sapiens, UniProt Q9UBN7); assay: Inhibition of HDAC6 (unknown origin) using Boc-Lys(Ac)-pNA as substrate preincubated for 20 mins followed by substrate addition and further incubated for 90 mins by fluorescence assay
# T3 sequence (Q9UBN7 whole entry): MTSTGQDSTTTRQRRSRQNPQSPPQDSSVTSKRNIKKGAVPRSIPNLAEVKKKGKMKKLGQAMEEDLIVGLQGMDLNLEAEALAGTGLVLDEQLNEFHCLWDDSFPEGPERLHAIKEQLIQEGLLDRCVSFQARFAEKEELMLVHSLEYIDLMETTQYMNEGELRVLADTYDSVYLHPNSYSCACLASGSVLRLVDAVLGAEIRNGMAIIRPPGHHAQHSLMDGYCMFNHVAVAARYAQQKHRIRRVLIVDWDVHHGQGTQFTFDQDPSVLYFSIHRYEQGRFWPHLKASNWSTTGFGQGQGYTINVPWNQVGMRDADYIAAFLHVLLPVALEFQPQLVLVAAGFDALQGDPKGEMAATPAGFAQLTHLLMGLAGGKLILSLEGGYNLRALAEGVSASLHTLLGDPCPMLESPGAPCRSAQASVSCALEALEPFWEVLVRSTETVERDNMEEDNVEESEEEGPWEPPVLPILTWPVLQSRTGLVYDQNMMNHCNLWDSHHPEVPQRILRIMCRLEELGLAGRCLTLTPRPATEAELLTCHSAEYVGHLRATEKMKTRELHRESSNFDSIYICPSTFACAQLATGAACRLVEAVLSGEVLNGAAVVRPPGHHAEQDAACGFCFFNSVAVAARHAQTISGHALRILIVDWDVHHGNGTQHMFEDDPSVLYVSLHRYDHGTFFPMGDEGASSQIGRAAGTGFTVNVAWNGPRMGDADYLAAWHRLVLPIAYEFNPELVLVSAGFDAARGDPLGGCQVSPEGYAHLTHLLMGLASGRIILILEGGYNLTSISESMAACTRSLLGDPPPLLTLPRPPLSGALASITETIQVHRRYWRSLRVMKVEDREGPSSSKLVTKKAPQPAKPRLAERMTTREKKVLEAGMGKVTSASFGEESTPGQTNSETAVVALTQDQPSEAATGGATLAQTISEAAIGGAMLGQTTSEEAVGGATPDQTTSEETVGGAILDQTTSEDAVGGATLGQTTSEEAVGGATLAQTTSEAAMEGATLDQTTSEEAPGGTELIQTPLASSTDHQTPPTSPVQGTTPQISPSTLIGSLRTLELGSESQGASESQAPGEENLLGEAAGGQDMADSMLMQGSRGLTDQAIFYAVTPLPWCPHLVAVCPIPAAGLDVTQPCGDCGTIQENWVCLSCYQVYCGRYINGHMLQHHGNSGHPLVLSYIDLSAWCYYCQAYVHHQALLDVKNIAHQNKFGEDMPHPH
# [11] = molecular target: T4, Protein deacetylase HDAC6 (Homo sapiens) (UniProt Q9UBN7); assay: Inhibition of HDAC6 (unknown origin) at 10 uM using Boc-Lys(Ac)-pNA as substrate preincubated for 20 mins followed by substrate addition and further incubated for 90 mins by fluorescence assay relative to control
# T4 sequence (whole entry): T3 sequence (Q9UBN7 whole entry)
# T2 sequence (Q13547 whole entry): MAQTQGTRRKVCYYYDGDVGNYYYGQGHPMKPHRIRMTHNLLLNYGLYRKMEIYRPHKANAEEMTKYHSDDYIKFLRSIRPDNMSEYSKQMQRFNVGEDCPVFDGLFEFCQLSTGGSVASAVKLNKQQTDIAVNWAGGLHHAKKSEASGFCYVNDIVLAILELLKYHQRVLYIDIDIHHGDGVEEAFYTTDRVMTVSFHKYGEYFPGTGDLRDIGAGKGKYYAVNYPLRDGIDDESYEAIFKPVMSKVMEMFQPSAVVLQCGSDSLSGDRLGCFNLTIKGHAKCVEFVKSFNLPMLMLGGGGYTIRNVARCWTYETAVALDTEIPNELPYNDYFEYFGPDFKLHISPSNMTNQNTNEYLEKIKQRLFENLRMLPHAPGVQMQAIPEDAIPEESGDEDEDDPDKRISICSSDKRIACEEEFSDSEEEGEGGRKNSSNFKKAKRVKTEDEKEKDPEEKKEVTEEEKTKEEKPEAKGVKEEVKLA
IC50 [1] [µM],IC50 [2] [µM],Structure (SMILES),further results
0.00701,24.5,O=C(C[C@@H](CC1CCCC1)C(=O)N1CC2(CC2)C[C@H]1C(=O)Nc1ccc(F)cc1C(F)(F)F)NO,
0.00485,10,O=C(C[C@@H](CC1CCCC1)C(=O)N1CC2(CC2)C[C@H]1c1nc(-c2ccc(C(F)(F)F)cc2F)no1)NO,IC50 [3]: 10.3 µM; IC50 [4]: 8.7 µM; IC50 [5]: 4.77 µM; IC50 [6]: 10.6 µM; IC50 [7]: 29.1 µM
0.00424,2.07,CCCCc1ccc(-c2noc([C@@H]3CC4(CC4)CN3C(=O)[C@@H](CC(=O)NO)CC3CCCC3)n2)cc1,
0.00501,3.47,O=C(C[C@@H](CC1CCCC1)C(=O)N1CC2(CC2)C[C@H]1c1nc(-c2ccc(C3CC3)cc2)no1)NO,
0.00587,> 40,O=C(C[C@@H](CC1CCCC1)C(=O)N1CC2(CC2)C[C@H]1C(=O)Nc1cnccn1)NO,
0.0293,> 40,Cc1noc([C@@H]2CC3(CC3)CN2C(=O)[C@@H](CC(=O)NO)CC2CCCC2)n1,
0.00715,> 40,C=C1C[C@@H](C(=O)Nc2ccc(F)cn2)N(C(=O)[C@@H](CC(=O)NO)CC2CCCC2)C1,
0.00278,18.7,Cc1cnc(NC(=O)[C@@H]2CC3(CC3)CN2C(=O)[C@@H](CC(=O)NO)CC2CCCC2)s1,
0.00708,3.62,O=C(C[C@@H](CC1CCCC1)C(=O)N1CC2(CC2)C[C@H]1c1nc(-c2cc(F)cc(F)c2F)no1)NO,
0.0131,> 40,O=C(C[C@@H](CC1CCCC1)C(=O)N1CC2(CC2)C[C@H]1C(=O)Nc1cccnn1)NO,
0.00942,> 40,CCCC[C@H](CC(=O)NO)C(=O)N1CC2(CC2)C[C@H]1C(=O)Nc1ncc(C)s1,
0.00719,4.11,O=C(C[C@@H](CC1CCCC1)C(=O)N1CC2(CC2)C[C@H]1c1nc(-c2ccc(C(F)(F)F)cc2)no1)NO,IC50 [3]: 3.45 µM; IC50 [4]: 2.95 µM; IC50 [5]: 3.06 µM; IC50 [6]: 5.79 µM; IC50 [7]: 22.4 µM
0.00612,5.35,O=C(C[C@@H](CC1CCCC1)C(=O)N1CC2(CC2)C[C@H]1C(=O)Nc1ccc(Br)cc1)NO,
0.00874,> 40,O=C(C[C@@H](CC1CCCC1)C(=O)N1CC2(CC2)C[C@H]1C(=O)Nc1nccs1)NO,
0.00548,2.87,O=C(C[C@@H](CC1CCCC1)C(=O)N1CC2(CC2)C[C@H]1c1nc(-c2ccc(Br)cc2)no1)NO,IC50 [3]: 2.61 µM; IC50 [4]: 2.56 µM; IC50 [5]: 2.17 µM; IC50 [6]: 3.56 µM; IC50 [7]: 21.7 µM
0.00377,4.46,O=C(C[C@@H](CC1CCCC1)C(=O)N1CC2(CC2)C[C@H]1c1nc(-c2ccccc2)no1)NO,IC50 [3]: 2.55 µM; IC50 [4]: 3.8 µM; IC50 [5]: 3.58 µM; IC50 [6]: 8.64 µM; IC50 [7]: 32.3 µM; IC50 [8]: > 10 µM; inhibition [9]: -0.95%; IC50 [10]: > 10 µM; inhibition [11]: 1.08%

IC50 [1] [µM],IC50 [2] [µM],Structure (SMILES),further results
0.00642,14.9,O=C(C[C@@H](CC1CCCC1)C(=O)N1CC2(CC2)C[C@H]1C(=O)Nc1ccccc1)NO,
0.00492,> 40,CCCC[C@H](CC(=O)NO)C(=O)N1CC2(CC2)C[C@H]1C(=O)Nc1ccc(F)cn1,
,,Cc1cc(C)cc(C(=O)NOCCCCCC(=O)NO)c1,IC50 [8]: 0.058 µM; IC50 [10]: 0.012 µM
0.0161,> 40,O=C(C[C@@H](CC1CCCC1)C(=O)N1CC2(CC2)C[C@H]1c1nc(-c2cnccn2)no1)NO,
0.00647,3.49,O=C(C[C@@H](CC1CCCC1)C(=O)N1CC2(CC2)C[C@H]1c1nc(-c2ccc(C(F)(F)F)cc2Cl)no1)NO,IC50 [3]: 2.53 µM; IC50 [4]: 3.15 µM; IC50 [5]: 3.45 µM; IC50 [6]: 5.78 µM; IC50 [7]: 28.4 µM
0.00953,> 40,O=C(C[C@@H](CC1CCCC1)C(=O)N1CC2(CC2)C[C@H]1C(=O)Nc1ccncn1)NO,
0.00299,29.1,Cc1csc(NC(=O)[C@@H]2CC3(CC3)CN2C(=O)[C@@H](CC(=O)NO)CC2CCCC2)n1,
0.00587,20.2,O=C(C[C@@H](CC1CCCC1)C(=O)N1CC2(CC2)C[C@H]1C(=O)Nc1ccc(F)cn1)NO,
0.0302,> 40,Cn1cc(NC(=O)[C@@H]2CC3(CC3)CN2C(=O)[C@@H](CC(=O)NO)CC2CCCC2)cn1,
0.00358,11.2,Cc1ccc(NC(=O)[C@@H]2CC3(CC3)CN2C(=O)[C@@H](CC(=O)NO)CC2CCCC2)cc1,
0.0109,> 40,O=C(C[C@@H](CC1CCCC1)C(=O)N1CCC[C@H]1C(=O)Nc1ccc(F)cn1)NO,
0.00501,> 40,O=C(C[C@@H](CC1CCCC1)C(=O)N1CC2(CC2)C[C@H]1c1nc(-c2ccc(F)cn2)no1)NO,
0.00894,> 40,Cc1cnc(NC(=O)[C@@H]2CCCN2C(=O)[C@@H](CC(=O)NO)CC2CCCC2)s1,
0.00926,7.78,Cc1ccc(-c2noc([C@@H]3CC4(CC4)CN3C(=O)[C@@H](CC(=O)NO)CC3CCCC3)n2)cc1,IC50 [3]: 8.69 µM; IC50 [4]: 5.35 µM; IC50 [5]: 5.35 µM; IC50 [6]: 9.89 µM; IC50 [7]: 29.8 µM
0.00881,2.31,CCc1ccc(-c2noc([C@@H]3CC4(CC4)CN3C(=O)[C@@H](CC(=O)NO)CC3CCCC3)n2)cc1,IC50 [3]: 2.43 µM; IC50 [4]: 2.82 µM; IC50 [5]: 1.88 µM; IC50 [6]: 3.95 µM; IC50 [7]: 19.9 µM
